Measurements as given in article PMC9738531, “Cholinesterases Inhibition, Anticancer and Antioxidant Activity of Novel Benzoxazole and Naphthoxazole Analogs” (Molecules, 2022).
Where two headings read alike, the source gives them in different places.

Key:
[1] = test system: HCV29T (bladder cancer) cells; test: SRB antiproliferative assay, HCV29T; format: cell-based, human; conditions: 72 h, means ± SD, read-out: IC50 HCV 29T
Protocol: (§1) The compounds were also evaluated for their antiproliferative potencies against human cancer cell lines as the potential anticancer agents. […]. The results are presented in Table 3 and expressed as IC50 (μM). In that score, the highest potency was shown by the analogs from the naphtho[1,2-d][1,3]oxazole group 8–10, particularly by derivative 10 with a chlorine atom on the benzenediol moiety.
(§2) In the antiproliferative assay in vitro, the following human cell lines were applied: T47D (breast cancer), SW707 (rectal adenocarcinoma), A549 (non-small cell lung carcinoma) from the American Type Culture Collection (Rockville, MD, USA) and HCV29T (bladder cancer) from the Fibiger Institute, Copenhagen, Denmark. Cytotoxicity assay was performed after 72 h exposure of the cultured cells at the concentration ranging from 0.1 to 100 μg/mL of the tested agents. The SRB test measuring the cell proliferation inhibition in the in vitro culture was applied. The cellular material fixed with TCA was stained with 0.4% sulforhodamine B (Chemie GmbH, Steinheim, Germany) dissolved in 1% acetic acid (POCh, Gliwice, Poland) for 30 min.

[2] = Lipophilicity by RP-18 HPLC chromatography; format: physicochemical; conditions: for -S (slope of log k vs MeOH fraction): MeOH/acetate buffer, pH 7.4; for log kw: pH 7.4, extrapolation to pure water as mobile phase
Excerpt: The lipophilicity parameter was estimated for the tested compounds as it is an important feature that influences the pharmacokinetic properties of bioactive compounds [46, 47]. Lipophilicity also determines some biological activities, such as the antiproliferative or fungistatic activity. For lipophilicity determination, reversed-phase column chromatography was used, with the octadecyl C-18 stationary phase and MeOH as the organic modifier in the isocratic conditions.
HPLC measurements were performed using a liquid chromatograph (Knauer, Berlin, Germany) with a dual pump and a UV-visible detector. The measurements were made at 254 or 320 nm at room temperature. A Eurosil Bioselect C18 (5 μm, 300 × 4.6 mm) column was applied as the stationary phase. The mobile phase consisted of different volume mixtures of 20 mM acetate buffer as the aqueous phase, and MeOH as the organic modifier (pH 7.4). The different concentrations of MeOH from 0.5 to 0.90 (v/v) range was used, depending on the structure of the compound at 0.05 intervals. The flow rate was 1 mL/min. Retention time of an unretained solute (t0) was determined by the injection of a small amount of acetone dissolved in water.
Regular changes in the retention coefficients of compounds in a function of the organic modifier MeOH content in the mobile phase are described by the Soczewiński–Wachtmeister equation [56]:log k = log kw + S φ(1)
φ—the volume fraction of organic modifier (MeOH) in the mobile phase; log kw—the intercept; S—slope of the regression curve. Log kw refers to the retention parameter of a compound with pure water as the mobile phase.

[3] = test system: T47D (breast cancer) cells; test: SRB antiproliferative assay, T47D; format: cell-based, human; conditions: 72 h, means ± SD
Protocol: as §1, §2

[4] = test system: A549 (non-small cell lung carcinoma) cells; test: SRB antiproliferative assay, A549; format: cell-based, human; conditions: means ± SD
Protocol: as §1, §2

[5] = test system: SW707 (rectal adenocarcinoma) cells; test: SRB antiproliferative assay, SW707; format: cell-based, human; conditions: means ± SD, read-out: IC50 SW 707
Protocol: as §1, §2

[6] = test system: normal mammary gland MCF10A cells; test: LDH cytotoxicity assay, MCF10A normal cells; format: cell-based, human; conditions: 72 h
Protocol: (§3) In view of the observed antiproliferative activity, the influence of the tested compounds on the normal human cells—normal mammary gland epiterial cells of the MCF10A line and the normal keratenocytes HaCaT line—was examined (Figure 5). The cells were treated with compounds 3, 8 and 10 in the concentration range from 0.1 µM to 25 µM for 72 h, after which the cell viability was tested by analysis of the level of released lactate dehydrogenase (LDH method).
(§4) Normal human epithelial cells from the mammary gland, MCF10A (a generous gift from our colleague Dr. Saraswati Sukumar (JHU), who obtained them recently from ATCC), and normal human keratinocytes HaCaT (also obtained from ATCC), were cultured in DMEM/F12 medium (Gibco), supplemented with 5% horse serum (Gibco), 5% FBS (Sigma-Aldrich Chemie GmbH, Taufkirchen, Germany ), penicillin streptomycin solution (1×) (Gibco) at 37 °C and 5% CO2. The cells were subcultured twice a week.
(§5) Human epiterial breast cells MCF10A and human keratinocytes HaCaT (1 × 10^4/mL) cells were placed on 96-well plates (Nunc, Roskilde, Denmark). The next day, the cells were exposed to increasing concentrations of compounds 3, 8 and 10 in 0.1, 0.25, 0.5, 1, 2.5, 5, 10 and 25 μM in fresh culture medium. Cytotoxicity was estimated based on the measurements of cytoplasmic lactate dehydrogenase (LDH) activity released from the damaged cells after the 72 h exposure to the compounds. The LDH assay was performed according to the manufacturer’s instructions (Cytotoxicity Detection KitPLUS LDH, Roche, Mannheim, Germany). Absorbance was measured using a microplate at two different wavelengths: “measurement wavelength” (492 nm) and “reference wavelength” (690 nm), using a microplate.

[7] = DPPH free radical scavenging activity; conditions: concentration scavenging 50% of DPPH radicals; means ± SD of three experiments
Protocol: To evaluate the antioxidant potential of compounds as radical scavengers versus the stable free radicals, 2,2-diphenylpicrylhydrazyl (DPPH) was applied. Antioxidant properties were expressed as the IC50 value—the concentration of compound required for scavenging 50% of DPPH radicals. […].
The DPPH free radical scavenging activities of the synthesized compounds were measured by DPPH, according to the method described in the paper. The free radical scavenging activity was measured as a decrease in the absorbance of DPPH, and calculated using the equation:DPPH scavenging effects (%) = […] [(A0 − A1)/A0]∙100](2) where: A0 was the absorbance of the control reaction and A1 absorbance in the presence of the sample of the analysed compounds [62]. The IC50 values were calculated as the concentration of compound required for scavenging 50% of DPPH [45]. Results were presented as the mean ± standard deviation (SD). The antioxidant activity data were compared using the one-way ANOVA test at the significance level 5%.

[8] = test system: normal keratinocytes HaCaT cells; test: LDH cytotoxicity assay, HaCaT normal cells; format: cell-based, human; conditions: 72 h
Protocol: as §3, §4, §5

[9] = biological target: T1, Acetylcholinesterase (AChE, E.C. 3.1.1.7, from human erythrocytes) (Homo sapiens, UniProt P22303); test: biochemical; conditions: for Selectivity for AChE: IC50 (BChE)/IC50 (AChE); for IC50: means ± SEM of three independent experiments
T1 construct: Acetylcholinesterase (AChE, E.C. 3.1.1.7, from human erythrocytes); purchased Sigma-Aldrich (Steinheim, Germany); host or cells: human erythrocytes (natural source)
Protocol: (§6) The compounds were evaluated by an in vitro assay as the AChE and BChE inhibitors. The studies were carried out using the modified Ellman’s method. […] The inhibitory activities against AChE and BChE of the newly-synthesized compounds were determined exactly, according to a previous paper. […] The samples were analysed in triplicate. IC50 values were designated from a dose–response curve obtained by plotting the percentage of inhibition versus the log concentration, using GraphPad Prism 8 software. […] AChE and BChE activity data were compared using the Kruskal–Wallis test at the significance level of 1%.

[10] = biological target: T2, butyrylcholinesterase (BChE, E.C. 3.1.1.8, from equine serum) (Equus caballus, UniProt P81908); test: biochemical; conditions: means ± SEM of three independent experiments
T2 construct: butyrylcholinesterase (BChE, E.C. 3.1.1.8, from equine serum); purchased Sigma-Aldrich (Steinheim, Germany); host or cells: equine serum (natural source)
Protocol: as §6

T2 sequence (P81908 whole entry): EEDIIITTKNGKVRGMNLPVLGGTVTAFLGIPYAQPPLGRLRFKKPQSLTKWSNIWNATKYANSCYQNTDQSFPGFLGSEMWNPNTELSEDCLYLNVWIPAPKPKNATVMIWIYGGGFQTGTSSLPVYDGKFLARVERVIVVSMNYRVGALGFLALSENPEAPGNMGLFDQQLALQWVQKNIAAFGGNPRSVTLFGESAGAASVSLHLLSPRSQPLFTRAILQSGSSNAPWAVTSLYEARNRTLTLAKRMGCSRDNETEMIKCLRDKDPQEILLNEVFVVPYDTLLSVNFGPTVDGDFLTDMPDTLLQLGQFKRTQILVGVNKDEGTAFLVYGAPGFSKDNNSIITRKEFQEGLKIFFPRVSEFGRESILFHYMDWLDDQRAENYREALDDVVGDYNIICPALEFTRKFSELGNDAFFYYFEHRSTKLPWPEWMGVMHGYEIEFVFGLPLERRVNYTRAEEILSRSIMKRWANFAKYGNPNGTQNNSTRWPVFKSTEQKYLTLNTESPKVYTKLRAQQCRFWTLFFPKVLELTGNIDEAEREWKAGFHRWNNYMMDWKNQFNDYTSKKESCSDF
T1 sequence (P22303 other isoform, or with tags, fused parts or gaps): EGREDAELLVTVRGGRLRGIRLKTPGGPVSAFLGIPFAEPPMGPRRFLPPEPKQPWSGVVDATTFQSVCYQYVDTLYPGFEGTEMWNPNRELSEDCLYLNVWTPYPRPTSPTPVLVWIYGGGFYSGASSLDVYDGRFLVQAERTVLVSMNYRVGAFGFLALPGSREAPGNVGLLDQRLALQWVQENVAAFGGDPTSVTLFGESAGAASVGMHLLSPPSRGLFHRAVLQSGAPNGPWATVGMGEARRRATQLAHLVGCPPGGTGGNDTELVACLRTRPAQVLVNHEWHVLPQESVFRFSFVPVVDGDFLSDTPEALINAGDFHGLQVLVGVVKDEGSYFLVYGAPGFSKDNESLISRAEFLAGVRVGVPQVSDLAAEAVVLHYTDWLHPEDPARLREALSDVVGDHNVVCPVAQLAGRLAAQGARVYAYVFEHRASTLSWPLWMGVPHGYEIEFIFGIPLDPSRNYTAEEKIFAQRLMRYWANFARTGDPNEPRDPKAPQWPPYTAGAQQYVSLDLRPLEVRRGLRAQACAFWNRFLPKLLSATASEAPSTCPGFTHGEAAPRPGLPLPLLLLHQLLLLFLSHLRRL

| SMILES | IC50 ([1]; Homo sapiens, HCV29T) [µM] | -S (slope of log k vs MeOH fraction) [2] | log kw [2] | IC50 ([3]; Homo sapiens, T47D) [µM] | IC50 ([4]; Homo sapiens, A549, 72 h) [µM] | IC50 ([5]; Homo sapiens, SW707, 72 h) [µM] | toxicity to normal breast cells (LDH release) ([6]; 0.1–10 µM) | change in lactate dehydrogenase levels ([6]; 5 and 10 µM, vs control) | IC50 [7] [µM] | toxicity to keratinocytes (LDH release) ([8]; HaCaT, 0.1–10 µM) | change in lactate dehydrogenase levels ([8]; HaCaT, 2.5, 5 and 10 µM, vs control) | Selectivity for AChE [9] | IC50 [9] [µM] | IC50 [10] [µM] | IC50 [3] [µM] | IC50 [1] [µM] | IC50 ([4]; 72 h) [µM] | IC50 ([5]; 72 h) [µM] |
| --- | --- | --- | --- | --- | --- | --- | --- | --- | --- | --- | --- | --- | --- | --- | --- | --- | --- | --- |
| Oc1ccc(-c2nc3ccccc3o2)c(O)c1 [Compound 1, 4-(1,3-Benzoxazol-2-yl)benzene-1,3-diol] | 33.9 ± 4.77 | 4.358 | 3.273 | – | – | – | – | – | – | – | – | – | – | – | – | – | – | – |
| Cc1c(O)ccc(-c2nc3ccc(O)cc3o2)c1O [Compound 2, 4-(6-Hydroxy-1,3-benzoxazol-2-yl)-2-methylbenzene-1,3-diol] | 8.34 ± 1.53 | 4.64 | 3.301 | 5.28 ± 0.16 | 6.81 ± 2.23 | 4.38 ± 1.57 | – | – | – | – | – | – | – | – | – | – | – | – |
| COC(=O)c1ccc2nc(-c3ccc(O)cc3O)oc2c1 [Compound 3, Methyl 2-(2,4-dihydroxyphenyl)-1,3-benzoxazole-6-carboxylate] | 6.43 ± 1.12 | 5.325 | 2.92 | 3.37 ± 1.52 | 4.28 ± 0.55 | 5.47 ± 2.16 | not toxic | statistically significant reduction | 0.286 ± 0.122 | not toxic | statistically significant reduction | 10.017 | 0.113 ± 0.011 | 1.13 ± 0.016 | – | – | – | – |
| COC(=O)c1ccc2nc(-c3ccc(O)c(C)c3O)oc2c1 [Compound 4, Methyl 2-(2,4-dihydroxy-3-methylphenyl)-1,3-benzoxazole-6-carboxylate] | 4.64 ± 0.93 | 5.002 | 3.411 | 3.2 ± 0.84 | 3.71 ± 0.4 | 3.36 ± 0.84 | – | – | – | – | – | – | – | – | – | – | – | – |
| CCc1cc(-c2nc3ccc(C(=O)OC)cc3o2)c(O)cc1O [Compound 5, Methyl 2-(5-ethyl-2,4-dihydroxyphenyl)-1,3-benzoxazole-6-carboxylate] | 3.54 ± 1.05 | 5.855 | 3.774 | 4.11 ± 1.27 | 3.08 ± 0.26 | 2.13 ± 0.49 | – | – | – | – | – | – | – | – | – | – | – | – |
| COC(=O)c1ccc2nc(-c3cc(Cl)c(O)cc3O)oc2c1 [Compound 6, Methyl 2-(5-chloro-2,4-dihydroxyphenyl)-1,3-benzoxazole-6-carboxylate] | 7.54 ± 3.15 | 5.477 | 4.223 | 6.61 ± 2.48 | 10.5 ± 5.61 | 6.04 ± 0.89 | – | – | 0.861 ± 0.071 | – | – | 0.394 | 0.831 ± 0.014 | 0.328 ± 0.027 | – | – | – | – |
| COC(=O)c1ccc2nc(-c3ccc(O)c(O)c3O)oc2c1 [Compound 7, Methyl 2-(2,3,4-trihydroxyphenyl)-1,3-benzoxazole-6-carboxylate] | 23.3 ± 4.07 | 4.811 | 2.800 | – | – | – | – | – | 0.887 ± 0.064 | – | – | 3.644 | 0.183 ± 0.031 | 0.667 ± 0.004 | – | – | – | – |
| CCc1cc(-c2nc3c(ccc4ccccc43)o2)c(O)cc1O [Compound 9, 4-Ethyl-6-(naphtho[1,2-d][1,3]oxazol-2-yl)benzene-1,3-diol] | 3.72 ± 0.36 | 5.395 | 4.901 | 7.28 ± 2.5 | 4.94 ± 0.69 | 8.58 ± 3.4 | – | – | 0.214 ± 0.024 | – | – | 1.971 | 0.516 ± 0.009 | 1.02 ± 0.032 | – | – | – | – |
| N.N.[Cl][Pt][Cl] [cisplatin, reference compound] | – | – | – | – | – | – | – | – | – | – | – | – | – | – | 4.01 ± 1.58 | 2.4 ± 0.32 | 3.07 ± 0.45 | 3.65 ± 0.76 |
| O=c1c(O)c(-c2ccc(O)c(O)c2)oc2cc(O)cc(O)c12 [quercetin, reference compound] | – | – | – | – | – | – | – | – | 0.032 ± 0.001 | – | – | – | – | – | – | – | – | – |
